Several values for one entry are separate records, joined by “and”; a condition that tells them apart may be missing. Equal values may be shown once.
How the values were obtained:
[1] = Partition equilibrium under the influence of salinity (NaCl), glass reactor, neutralization titration; type: physicochemical; settings: Salinity 0 (%, m · m^−1) NaCl
[2] = Control experiments: availability of the species in alkaline aqueous medium without using the reactor; type: physicochemical; settings: acid solubilized directly in aqueous phase, no reactor
Protocol: Previously, the back titration procedure was internalized and optimized (Example 1), ensuring that the reproducibility of the measurements was adequate (standard deviation values below 10%, for example) and that the recoveries were close to what was expected based on the purity of the reagents (i.e., close to or above 90%). […] Control experiments were performed (measuring the availability of the species in an aqueous medium, without using the reactor) by solubilizing the organic acid directly in the aqueous phase and titrating a 10.0 mL aliquot; the same way, experiments were performed in the reactor based on the standardization of heptol and salinity already discussed (3.5%).

[3] = Partition equilibrium with addition of calcium and strontium salts to the aqueous phase; type: physicochemical; settings: for Migration: salinity 3.5%
Protocol: The addition of salts to the reaction system is of fundamental importance when one intends to mimic field conditions. In this sense, in addition to continuing the study of the salinity effect (Example 4), the insertion of salts containing Ca^2+ and Sr^2+ ions, known to be present in seawater, was tested. To this end, the projects were based on the literature (Zheng, J. et al. Offshore produced water management: A review of current practice and challenges in harsh/Arctic environments. Mar. Pol. Bul. 2016, 104, 7-19) and four concentrations of each of the two ions were evaluated (400.0, 1200.0, 2600.0 and 9000.0 mg·L^−1), maintaining salinity at 3.5% (m·v^−1).
In short, the experimental results were generated in triplicate, using 99% NaCl to add salinity to the aqueous fraction and PA calcium chloride and PA strontium chloride to add calcium and strontium, respectively.
The addition of calcium and strontium to the reaction system, in the form of salts, aims at mimicking the real scenario in which both species are present (regardless of the salinity of the medium), especially in the well condition. This study aimed at understanding the effect (on the migration of acids to the organic phase) of this ion in the system also at concentrations higher than 10 mM. Finally, the experiments (in triplicate) with divalent strontium ions followed the same rationale.

[4] = Partition equilibrium in reactor pressurized with CO2, in presence and absence of alkalinity (NaHCO3, Na2CO3), back titration
[5] = Partition equilibrium under the influence of salinity (NaCl), glass reactor, neutralization titration; type: physicochemical
Protocol: The variation in salinity (and its effect on acidic species) is due to the large variation in salinity found between the portions of bottom-hole water, middle-well water and surface water. Thus, systems with salinity (i.e., NaCl) between 3.5 and 30% (m·v^−1) were tested in a glass reactor, and neutralization titration was performed (in triplicate analysis), as previously described. Furthermore, the experimental results were generated in triplicate, using 99% NaCl (Sigma-Aldrich) with five acidic species.

[6] = Partition equilibrium (migration to aqueous phase) heptol/water under pressure and temperature, central composite design, potentiometric titration; type: physicochemical; settings: for Migration, Predicted: model value
Protocol: Three multivariate experimental designs (central composite designs) were performed in which the variables pressure (up to 1 MPa) and temperature (between 25° C. and 80° C.) were considered independent variables, with the migration of three acidic species as the response factor: benzoic, pentanoic and cyclohexanepentanoic acid. For this purpose, 5 levels were defined and gave rise to 10 experiments for each acidic species (Table 4), added to two control experiments (with higher pressure and temperature, as well as in the absence of pressure and at room temperature).
The experiments were performed with constant salinity of 3.5% (m·v^−1), constant heptol fraction (70:30, for heptane and toluene), and acidic species concentration of 0.03 M for benzoic and pentanoic acid, and 0.01 M for cyclohexanepentanoic acid. The results were evaluated with 95% confidence, using a response surface to estimate the maximum observable effect in each case, provided that the mathematical correlation was equal to or greater than R^2: 0.75.

Migration [1]: 4.9 %, mol | Availability (reference value) ([2]; Na2CO3 + NaHCO3 (3.48×10^−5 mol)): 100 % mol | Availability (reference value) ([2]; NaHCO3 (3.45×10^−5 mol)): 100 % mol | Migration ([3]; Absence of ions): 4.9 %, mol | Migration ([3]; Calcium 400 mg · L^−1): 5.5 %, mol | Migration ([3]; Calcium 1200 mg · L^−1): 4.7 %, mol | Migration ([3]; Calcium 2600 mg · L^−1): 4.8 %, mol | Migration ([3]; Strontium 400 mg · L^−1): 4.4 %, mol | Migration ([3]; Strontium 1200 mg · L^−1): 5.3 %, mol | Migration ([3]; Strontium 2600 mg · L^−1): 4.8 %, mol | Effect of calcium ion on migration to the aqueous phase ([3]; calcium up to the maximum study concentrations): no variation in migration | Effect of strontium ions on migration to the aqueous phase ([3]; strontium 400-2600 mg·L^−1): no effect | Migration ([4]; 25° C. and 1.0 MPa CO2, no alkalinity): not quantifiable | Migration ([4]; 80° C. and 1.0 MPa CO2, no alkalinity): not quantifiable | Migration ([4]; Na2CO3 + NaHCO3, 25° C. and 0.1 MPa): 71.1 % mol | Migration ([4]; Na2CO3 + NaHCO3, 25° C. and 1.0 MPa CO2): 100.0 % mol | Migration ([4]; Na2CO3 + NaHCO3, 80° C. and 1.0 MPa CO2): 100.0 % mol | Migration ([4]; NaHCO3, 25° C. and 0.1 MPa): 82.7 % mol | Migration ([4]; NaHCO3, 25° C. and 1.0 MPa CO2): 100.0 % mol | Migration ([4]; NaHCO3, 80° C. and 1.0 MPa CO2): 100.0 % mol | Migration ([4]; Reference (heptol + 3.5% NaCl), no alkalinity): 4.9 % mol and 4.3 % mol | Migration to aqueous medium, approximate level over the salinity study ([5]; 0-30% NaCl): ~5% | Effect of the addition of salinity on migration ([5]; 3.5-30% NaCl, 95% reliability): no significant effect | Migration ([5]; Salinity 3.5 (%, m · m^−1) NaCl): 5.5 %, mol | Migration ([5]; Salinity 18.0 (%, m · m^−1) NaCl): 5.5 %, mol | Migration ([5]; Salinity 30.0 (%, m · m^−1) NaCl): 4.8 %, mol | Migration, Measured ([6]; 20 °C, 0.1 MPa (experiment 12, control)): 4.0 %, mol | Migration, Increment (related to control) ([6]; 25 °C, 0.5 MPa (experiment 5)): −39.73 %, mol | Migration, Measured ([6]; 25 °C, 0.5 MPa (experiment 5)): 2.4 %, mol | Migration, Increment (related to control) ([6]; 38 °C, 0.25 MPa (experiment 1)): −42.22 %, mol | Migration, Measured ([6]; 38 °C, 0.25 MPa (experiment 1), heptol 70:30, 3.5% salinity): 2.3 %, mol | Migration, Increment (related to control) ([6]; 38 °C, 0.75 MPa (experiment 3)): 104.3 %, mol | Migration, Measured ([6]; 38 °C, 0.75 MPa (experiment 3)): 8.2 %, mol | Migration, Increment (related to control) ([6]; 52 °C, 0.1 MPa (experiment 7)): −29.8 %, mol | Migration, Measured ([6]; 52 °C, 0.1 MPa (experiment 7)): 2.8 %, mol | Migration, Measured ([6]; 52 °C, 0.5 MPa (experiments 9 and 10, centre point)): 2.6 %, mol and 3.1 %, mol | Migration, Increment (related to control) ([6]; 52 °C, 1 MPa (experiment 8)): 76.99 %, mol | Migration, Measured ([6]; 52 °C, 1 MPa (experiment 8)): 7.1 %, mol | Migration, Increment (related to control) ([6]; 66 °C, 0.25 MPa (experiment 2)): −37.25 %, mol | Migration, Measured ([6]; 66 °C, 0.25 MPa (experiment 2)): 2.5 %, mol | Migration, Increment (related to control) ([6]; 66 °C, 0.75 MPa (experiment 4)): 106.79 %, mol | Migration, Measured ([6]; 66 °C, 0.75 MPa (experiment 4)): 8.3 %, mol | Migration, Increment (related to control) ([6]; 80 °C, 0.5 MPa (experiment 6)): 157.42 %, mol | Migration, Measured ([6]; 80 °C, 0.5 MPa (experiment 6)): 10.3 %, mol | Migration, Increment (related to control) ([6]; 80 °C, 1 MPa (experiment 11)): −34.77 %, mol | Migration, Measured ([6]; 80 °C, 1 MPa (experiment 11, control)): 2.6 %, mol | Migration, Predicted ([6]; 25 °C, 0.5 MPa (experiment 5)): 4.0 %, mol | Migration, Predicted ([6]; 38 °C, 0.25 MPa (experiment 1)): 1.7 %, mol | Migration, Predicted ([6]; 38 °C, 0.75 MPa (experiment 3)): 5.1 %, mol | Migration, Predicted ([6]; 52 °C, 0.1 MPa (experiment 7)): 1.9 %, mol | Migration, Predicted ([6]; 52 °C, 0.5 MPa (experiments 9 and 10)): 3.5 %, mol | Migration, Predicted ([6]; 52 °C, 1 MPa (experiment 8)): 8.6 %, mol | Migration, Predicted ([6]; 66 °C, 0.25 MPa (experiment 2)): 4.4 %, mol | Migration, Predicted ([6]; 66 °C, 0.75 MPa (experiment 4)): 7.7 %, mol | Migration, Predicted ([6]; 80 °C, 0.5 MPa (experiment 6)): 9.3 %, mol | Migration, Predicted ([6]; 80 °C, 1 MPa (experiment 11)): 8.6 %, mol
Compound: O=C(O)CCCCC1CCCCC1 [Cyclohexanepentanoic Acid, cyclohexanepentanoic acid]

From patent US20250231157A1, “METHOD FOR DETERMINING THE PARTITION OF NAPHTHENIC ACIDS FROM A PRODUCTION WATER MIMICKING SYSTEM AND MIMICKING SYSTEM” (PETRÓLEO BRASILEIRO S.A. – PETROBRAS, priority 2023, published 2025)
